In patent US6057315A, “Antibacterial agents” (Warner-Lambertt Company, priority 1999, dated 2000):
Converted amounts (≈) assume the structure as drawn.

What was measured:
Test in all cases: Antibacterial MIC, standard microtitration
Assay type in all cases: cell-based
E. coli Tol C = conditions: Escherichia coli, read-out: Minimum Inhibitory Concentrations
Procedure: (§1) The compounds of the present invention were tested against an assortment of gram positive and gram negative organisms using standard microtitration techniques (Cohen, et. al. Antimicrobial Agents Chemother. 1985, 28, 766; Heifetz, et. al. Antimicrobial Agents Chemother. 1974, 6, 124) and the results are given in Table 1.

E. coli B90 = conditions: Escherichia coli, Gram negative, read-out: Minimum Inhibitory Concentrations
Procedure: as §1

B. subtilis RB1 = conditions: Bacillus subtilis, Gram positive, read-out: Minimum Inhibitory Concentrations
Procedure: as §1

S. aureus 29213 = conditions: Staphylococcus aureus, Gram positive, read-out: Minimum Inhibitory Concentrations
Procedure: as §1

S. pyogenes C203 = conditions: Streptococcus pyogenes, Gram positive, read-out: Minimum Inhibitory Concentrations
Procedure: as §1

E. Coli MC4100 = conditions: Escherichia coli, Gram negative, read-out: Minimum Inhibitory Concentrations
Procedure: as §1

SMILES | MIC (E. coli Tol C) | MIC (E. coli B90) | MIC (B. subtilis RB1) | MIC (S. aureus 29213) | MIC (S. pyogenes C203) | MIC (E. Coli MC4100)
CCCc1c(O)cc2oc3cccn3c(=O)c2c1O [Example 6, 6,8-Dihydroxy-7-propyl-9H-pyrrolo[2,1-b][1,3]benzoxazin-9-one] | 2 µg/mL (≈ 7.71 µM) | 4 µg/mL (≈ 15.4 µM) | 4 µg/mL (≈ 15.4 µM) | 2 µg/mL (≈ 7.71 µM) | 4 µg/mL (≈ 15.4 µM) | > 64 µg/mL
CCCc1c(O)cc2oc3cc(Cl)c(C=O)n3c(=O)c2c1O [Example 9, 2-Chloro-6,8-dihydroxy-9-oxo-7-propyl-9H-pyrrolo[2,1-b][1,3]benzoxazine-1-carboxaldehyde] | 2 µg/mL (≈ 6.22 µM) | 4 µg/mL (≈ 12.4 µM) | 1 µg/mL (≈ 3.11 µM) | 4 µg/mL (≈ 12.4 µM) | 4 µg/mL (≈ 12.4 µM) | > 64 µg/mL
CCCc1c(O)cc2oc3cc(Cl)c(C=NO)n3c(=O)c2c1O [Example 10, 2-Chloro-6,8-dihydroxy-9-oxo-7-propyl-9H-pyrrolo[2,1-b][1,3]benzoxazine-1-carboxaldehyde, oxime] | 8 µg/mL (≈ 23.8 µM) | > 64 µg/mL | 32 µg/mL (≈ 95 µM) | 32 µg/mL (≈ 95 µM) | 16 µg/mL (≈ 47.5 µM) | > 64 µg/mL
CCCc1c(OC(C)=O)cc2oc3cc(Cl)cn3c(=O)c2c1OC(C)=O [Example 13, 6,8-Bis(acetyloxy)-2-chloro-7-propyl-9H-pyrrolo [2,1-b][1,3]benzoxazin-9-one] | 8 µg/mL (≈ 21.2 µM) | 64 µg/mL (≈ 169 µM) | 8 µg/mL (≈ 21.2 µM) | 4 µg/mL (≈ 10.6 µM) | 4 µg/mL (≈ 10.6 µM) | > 64 µg/mL
